Tests used:
[1] = test system: pro-inflammatory genes regulated by M5; test: Inflammatory Response and Autoimmune PCR Array on RNA of M5-treated primary human keratinocytes; type: cell-based; conditions: diacerein 10 μM, infliximab 5 μg/ml; for number of genes in which the greatest effect was seen: of 48 genes partially or fully reversed by all three groups, keratinocytes + M5, 24 hours; for number of genes on which the effect of the five cytokines was partially or fully reversed: of 81 pro-inflammatory genes significantly (p<0.05) regulated at least 2-fold by M5, keratinocytes, 24 hours
Method: (§1) Experiments were carried out to investigate the effect of combined anti-TNF-α (infliximab) and diacerein, an inhibitor for a pro-inflammatory cytokine interleukin-1, utilizing an in vivo-equivalent psoriasis cell culture system. This in vivo-equivalent model is generated by using a group of 5 different natural chemicals (M5: IL-17A, IL-22, Oncostatin-M, IL-1α, and TNF-α) on human epidermal cells keratinocytes, recapitulating the in vivo immune dysregulation as identified in vivo in the skin lesions of patients affected by psoriasis (Guilloteau et al., Skin Inflammation Induced by the Synergistic Action of IL-17A, IL-22, Oncostatin M, IL-1α, and TNF-α Recapitulates Some Features of Psoriasis. Journal of Immunology 2010; 184:5263-70). Thus, this in vivo-equivalent model provides an excellent tool for the investigation of the combined effect of anti-TNF-α and diacerein on psoriasis.
The experiments were carried out in the following manner: Primary human keratinocytes (purchased from Invitrogen, Carlsbad, Calif.) Epilife culture medium supplemented with human keratinocyte growth supplement (Invitrogen) in standard humidified chamber (37° C., 5% CO2). When the cells reached 80% confluency, cells were divided into 5 groups for treatment: • 1). Cell culture medium alone, serving as a negative control • 2). Cell culture medium plus 5 natural chemicals (M5) • 3). Cell culture medium plus 5 natural chemicals (M5) and anti-TNF-alpha (infliximab) • 4). Cell culture medium plus 5 natural chemicals (M5) and diacerein • 5). Cell culture medium plus 5 natural chemicals (M5), anti-TNF-alpha (infliximab) and diacerein.
The above 5 groups were incubated at 37° C. for 24 hours.
The concentrations and commercial sources of the experiment components are: • IL-17 alpha (10 ng/ml, Life Technologies, Frederick, Md.) • IL-22 (10 ng/ml. Life Technologies, Frederick, Md.) • Oncostatin-M (10 ng/ml, Life Technologies, Frederick, Md.) • IL-1 alpha (10 ng/ml, Life Technologies, Frederick, Md.) • TNF-alpha ([…], Life Technologies, Frederick, Md.) • Diacerein (10 μM, Sigma Aldrich, Saint Louis, Md.) • Infliximab (Remicade®, an anti-TNF-alpha, 5 μg/ml, Jansen Biotech, Horsham, Pa.)
After 24 hours of incubation, the cultured cells were washed three times with sterile PBS (phosphate-buffered saline) and the RNAs were harvested with Trizol (Invitrogen) and the purity (A260/A280 ratio>1.8) was confirmed. Reverse transcription was performed with 1 micro gram RNA using first strand kit from Invitrogen according to manufacturer's instruction. 10 μl of mastermix (Qiagen, Valencia, Calif.) with the reversely transcribed cDNA were amplified using a real-time PCR machine (ViiA7 PCR, Applied Biosystems, Waltham, Pa.). Statistical analysis was performed with web-based Software. […]

[2] = test system: IL-6, IL-19, G-CSF, S100AB, and NAP-2; test: ELISA of cytokine proteins in culture supernatant of M5-treated primary human keratinocytes (psoriasis cell culture model); type: cell-based; conditions: of five gene products (IL-6, IL-19, G-CSF, S100AB, NAP-2), primary human keratinocytes + M5, 24 hours, diacerein 10 μM, infliximab 5 μg/ml
Method: as §1, with “Thus, this in vivo-equivalent model provides an excellent tool for the investigation of the combined effect of anti-TNF-α and diacerein on psoriasis.” left out
After 24 hours of incubation, the culture media (supernatant) of the above 5 groups were collected and stored at −20° C. for ELISA experiments as the following: 50-100 μl of cell culture supernatant were assayed with commercially available ELISA kits for human cytokines according to the manufacturers' instructions (IL-6, IL-19, G-CSF, S100AB, and NAP-2). The data we collected determined that infliximab alone (group 3), diacerein alone (group 4), and combined infliximab and diacerein (group 5) partially or completely reverse the dysregulation effect of the 5 natural chemicals (M5) in five, three, and five genes, respectively. […]

Molecule | number of genes in which the greatest effect was seen [1] [genes] | number of genes on which the effect of the five cytokines was partially or fully reversed [1] [genes] | number of genes in which the dysregulation effect of the 5 natural chemicals (M5) is partially or completely reversed [2]
CC(=O)Oc1cccc2c1C(=O)c1c(OC(C)=O)cc(C(=O)O)cc1C2=O [diacerein] | 17 | 61 | three
infliximab | 10 | 67 | five

From US20180311199A1, “COMBINATION TREATMENT FOR INFLAMMATORY DISEASES” (priority 2016, published 2018)
